{"source": "patent EP3884956A1", "about": "“METHODS FOR PRODUCING HEME PEROXIDASES” (Technische Universität Wien, priority 2020, dated 2021)", "test_in_all_cases": "Enzyme kinetic parameters, 96-well plate assay", "format_in_all_cases": "biochemical", "key": {"[1]": {"biological_target": "T1, horseradish peroxidase variant HRP N13D/N57S/P146Q/N175S/N255D/N268D/N275K (mHRP, SEQ ID NO: 4) (Armoracia rusticana, UniProt P00433, N205S/N285D/N298D/N305K/N43D/N87S/P176Q)", "T1 sequence (P00433 31-338 N43D/N87S/P176Q/N205S/N285D/N298D/N305K)": "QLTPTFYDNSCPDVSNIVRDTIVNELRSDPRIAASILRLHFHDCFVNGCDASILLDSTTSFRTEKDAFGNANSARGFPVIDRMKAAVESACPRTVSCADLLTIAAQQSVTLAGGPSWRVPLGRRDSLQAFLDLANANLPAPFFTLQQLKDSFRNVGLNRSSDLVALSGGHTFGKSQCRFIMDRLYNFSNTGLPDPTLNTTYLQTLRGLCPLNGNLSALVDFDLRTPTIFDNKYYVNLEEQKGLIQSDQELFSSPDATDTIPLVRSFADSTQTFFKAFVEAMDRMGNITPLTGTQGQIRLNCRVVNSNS", "conditions": "50 mM phosphate-citrate buffer pH 5, 30 °C; for Vmax (substrate ABTS): ABTS 0.1 - 7 mM, 1 mM hydrogen peroxide", "description": "(§1) Plant HRP Type VI-A (Cat. No.: P6782) was obtained from Sigma-Aldrich (St. Louis, MO, USA). All HRP variants produced in E. coli consisted of the sequence as set forth in SEQ ID NO: 2 with the indicated mutations unless specified otherwise.\n(§2) For measurements with 3,3',5,5'-tetramethylbenzidine (TMB) as substrate, the reaction mixture in each well of the 96-well plate contained a saturating hydrogen peroxide concentration of 1 mM and varying TMB concentrations (20 - 550 µM) in 50 mM phosphate-citrate buffer pH 5 in a final volume of 200 µL. Protein sample (5 µL) was mixed with 175 µl TMB-buffer mixture and the reaction was started with 20 µl hydrogen peroxide solution (10 mM). The increase in absorption was followed at 652 nm for 60s at 30 °C in a Tecan Infinite M200 PRO instrument. The kinetic parameters were calculated using Sigma Plot software (Systat Software INC., San Jose, CA, USA) and an extinction coefficient of ε652 = 39 mM^-1 cm^-1 (see Josephy, et al. \"The horseradish peroxidase-catalyzed oxidation of 3, 5, 3', 5'-tetramethylbenzidine. Free radical and charge-transfer complex intermediates.\" Journal of Biological Chemistry 257.7 (1982): 3669-3675).\n(§3) The increase in absorption was followed at 420 nm for 120 s at 30 °C in a Tecan Infinite M200 PRO instrument. The kinetic parameters were calculated using Sigma Plot software (Systat Software INC., San Jose, CA, USA) and an extinction coefficient of ε420 = 36 mM^-1 cm^-1 (see Childs and Bardsley. \"The steady-state kinetics of peroxidase with 2, 2'-azino-di-(3-ethyl-benzthiazoline-6-sulphonic acid) as chromogen.\" Biochemical Journal 145.1 (1975): 93-103).\nas §3"}, "[2]": {"biological_target": "T2, horseradish peroxidase variant HRP N13D/N57S/N175S/N255D/N268D (Armoracia rusticana, UniProt P00433, N205S/N285D/N298D/N43D/N87S)", "T2 sequence (P00433 31-338 N43D/N87S/N205S/N285D/N298D)": "T1 sequence (P00433 31-338 N43D/N87S/P176Q/N205S/N285D/N298D/N305K) with Q146P, K275N", "conditions": "50 mM phosphate-citrate buffer pH 5, 30 °C", "description": "as §1, §2, §3, §3"}, "[3]": {"biological_target": "T3, plant-derived HRP (pHRP; Plant HRP Type VI-A, horseradish peroxidase) (Armoracia rusticana, UniProt P00433)", "T3 sequence (P00433 31-338)": "T1 sequence (P00433 31-338 N43D/N87S/P176Q/N205S/N285D/N298D/N305K) with D13N, S57N, Q146P, S175N, D255N, D268N, K275N", "conditions": "Table 19; ABTS 0.1 - 7 mM, 1 mM hydrogen peroxide, 50 mM phosphate-citrate buffer pH 5, 30 °C", "description": "as §1, §2, §3"}, "[4]": {"biological_target": "T4, wild-type HRP (rHRP, horseradish peroxidase variant C1A, SEQ ID NO: 2) (Armoracia rusticana, UniProt P00433)", "T4 sequence (P00433 31-338)": "T1 sequence (P00433 31-338 N43D/N87S/P176Q/N205S/N285D/N298D/N305K) with D13N, S57N, Q146P, S175N, D255N, D268N, K275N", "conditions": "Table 20; TMB 20 - 550 µM, 1 mM hydrogen peroxide, 50 mM phosphate-citrate buffer pH 5, 30 °C", "description": "as §1, §2, §3"}, "[5]": {"conditions": "Table 17, hydrogen peroxide 0.001 - 1 mM, 10 mM ABTS"}, "[6]": {"conditions": "Table 17, hydrogen peroxide 0.001 - 1 mM, 10 mM ABTS, read-out: Km (substrate H2O2)"}}, "note": "Where a chain is given by its changes, count along the chain named."}
{"smiles": "CCn1c(=NN=c2sc3cc(S(=O)(=O)O)ccc3n2CC)sc2cc(S(=O)(=O)O)ccc21", "note": "[ABTS, 2,2'-azino-bis(3-ethylbenzothiazoline-6-sulfonic acid)]", "values": [{"measurement": "Vmax (substrate ABTS)", "setting": "[1]; Table 18", "value": "1214 ± 98", "unit": "U/mg"}, {"measurement": "Vmax (substrate ABTS)", "setting": "[1]; Table 19", "value": "1203 ± 96", "unit": "U/mg"}, {"measurement": "Vmax (substrate ABTS)", "setting": "[2]; Table 18, ABTS 0.1 - 7 mM, 1 mM hydrogen peroxide", "value": "1224 ± 115", "unit": "U/mg"}, {"measurement": "Vmax (substrate ABTS)", "setting": "[3]", "value": "1285 ± 70", "unit": "U/mg"}]}
{"smiles": "OO", "note": "[H2O2, hydrogen peroxide]", "values": [{"measurement": "Vmax (substrate H2O2)", "setting": "[1]; [5]", "value": "2337 ± 38", "unit": "U/mg"}, {"measurement": "kcat (substrate H2O2)", "setting": "[1]; [5]", "value": "1344 ± 22", "unit": "s⁻¹"}, {"measurement": "Km", "setting": "[1]; [6]", "value": "171 ± 9", "unit": "µM"}, {"measurement": "Vmax (substrate H2O2)", "setting": "[2]; [5]", "value": "2003 ± 14", "unit": "U/mg"}, {"measurement": "kcat (substrate H2O2)", "setting": "[2]; [5]", "value": "1152 ± 8.3", "unit": "s⁻¹"}, {"measurement": "Km", "setting": "[2]; [6]", "value": "174 ± 4", "unit": "µM"}]}
{"smiles": "Cc1cc(-c2cc(C)c(N)c(C)c2)cc(C)c1N", "note": "[TMB, 3,3',5,5'-tetramethylbenzidine]", "values": [{"measurement": "Vmax (substrate TMB)", "setting": "[4]", "value": "7146 ± 355", "unit": "U/mg"}, {"measurement": "kcat (substrate TMB)", "setting": "[4]", "value": "4169 ± 207", "unit": "s⁻¹"}]}
